Results reported in patent US6596759B2, “Medicament for treatment of irritable bowel syndrome” (Mitsubishi Chemical Corporation, priority 1997, dated 2003).
Entries after “also recorded” stand apart in the source; their conditions may differ. Marks after values point to notes of the source that are not given here.

Experiments:
[1] = tested on: defecation number induced by restraint stress in rats; experiment: Increase of defecation number induced by restraint stress (animal model of irritable bowel syndrome); type: in vivo; conditions: rat; for Effect on the defecation-suppressing action of the medicament of the present invention (combination of drugs): other drug given 1 hour, medicament 30 minutes before the restraint, FIG. 1; for Suppression of the increase of defecation number induced by the restraint (in words): over the doses of Table 3; for Suppressive action on stress-induced defecation at a high dose (in words): high dose (amitriptyline 100 mg/kg, diazepam 30 mg/kg)
Procedure: Increase of defecation number induced by restraint stress has widely been used as a pathological model of irritable bowel syndrome (Miyata et al., J. Pharmacol. Exp. Ther., 261, pp.297-303, 1992). Therefore, pathological model animals of irritable bowel syndrome were prepared according to the method of Williams et al. (Williams et al., Gastroenterology, 94, pp.611-621, 1988) and used for evaluation of the effectiveness of the medicament of the present invention. The medicament of the present invention was administered to the rats, and after 1 hour, their forelegs were fixed on their trunks with adhesive tapes under ether anesthesia (load of restraint stress). One hour after the restraint, defecation number was counted and the number was compared with that of the control group. In the experiments using a combination of drugs, the medicament of the present invention was administered to the animals 30 minutes before the restraint, and the other drug was administered 1 hour before the restraint.

[2] = tested on: defecation induced by forced swimming stress in rats; conditions: rat; cited from earlier work
animal model = conditions: cited from earlier work
[3] = tested on: patients with irritable bowel syndrome; conditions: double-blind test; cited from earlier work

SMILES	Suppression of the increase of defecation number induced by the restraint (in words) [1]	Suppression rate of defecation number (%) ([1]; oral, 10 mg/kg)	Suppression rate of defecation number (%) ([1]; oral, 30 mg/kg)	Suppression rate of defecation number (%) ([1]; oral, 100 mg/kg)	further results
c1cnc(N2CCNCC2)nc1 [1-PP, 1-(2-pyrimidinyl)piperazine]					Effect on the defecation-suppressing action of the medicament of the present invention (combination of drugs) [1]: inhibited; also recorded: antagonized
CCCN(CCC)C1CCc2cccc(O)c2C1 (stereo not shown) [8-OH-DPAT, 8-hydroxy-2-(di-n-propylamino)tetralin]	the defecation due to the stress was suppressed				Suppression rate of defecation number (%) ([1]; intraperitoneal, 0.03 mg/kg): 25%; Suppression rate of defecation number (%) ([1]; intraperitoneal, 0.1 mg/kg): 74* %; Suppression rate of defecation number (%) ([1]; intraperitoneal, 0.3 mg/kg): 97* %
CN(C)CCC=C1c2ccccc2CCc2ccccc21 [Amitriptyline, amitriptyline]		17%	6%	69* %	Suppressive action on stress-induced defecation at a high dose (in words) ([1]; oral): exhibited significant suppressive actions; Efficacy on stress-induced defecation at a lower dose (in words) ([1]; oral): no efficacy
O=C1CC2(CCCC2)CC(=O)N1CCCCN1CCN(c2ncccn2)CC1 [Buspirone, buspirone]	failed to exhibit significant efficacy	12%	12%	44%	Defecation suppressing activity, forced swimming stress [2]: exhibited significant defecation suppressing activity
c1ccc2c(c1)OC[C@H](CNCCCOc1ccc3c(c1)OCO3)O2 [Compound No. 1, 5-[3 [(2S)-(1,4-benzodioxan-2-ylmethyl)amino]propoxy]-1,3-benzo-dioxol]	dose-dependently suppressed				Anxiolytic activity (animal model): anxiolytic activity of the medicament of the present invention was observed; Suppression rate of defecation number (%) ([1]; oral, 0.3 mg/kg): 29%; Suppression rate of defecation number (%) ([1]; oral, 1 mg/kg): 45* %; Suppression rate of defecation number (%) ([1]; oral, 3 mg/kg): 81* %
CN1C(=O)CN=C(c2ccccc2)c2cc(Cl)ccc21 [Diazepam, diazepam]		36%	77* %		Suppression rate of defecation number (%) ([1]; oral, 3 mg/kg): 26%; Suppressive action on stress-induced defecation at a high dose (in words) ([1]; oral): exhibited significant suppressive actions; Efficacy on stress-induced defecation at a lower dose (in words) ([1]; oral): no efficacy
CNCCC(Oc1ccc(C(F)(F)F)cc1)c1ccccc1 (stereo not shown) [Fluoxetin]		24%	15%	26%	
O=C1[C@@H]2[C@H]3CC[C@H](C3)[C@@H]2C(=O)N1CCCCN1CCN(c2ncccn2)CC1 [Tandospirone, tandospirone]	failed to exhibit significant efficacy		8%	4%	Suppression rate of defecation number (%) ([1]; oral, 300 mg/kg): 44%; Therapeutic efficacy in irritable bowel syndrome compared with a placebo [3]: failed to give a significant difference
COc1ccccc1N1CCN(CC(C(=O)NC(C)(C)C)c2ccccc2)CC1 (stereo not shown) [WAY100135, N-tert-butyl-3-(4-(2-methoxyphenyl)piperazin-1-yl)-2-phenyl-propanamide]					Effect on the defecation-suppressing action of the medicament of the present invention (combination of drugs) [1]: inhibited
